Test results reported in patent US9834527B2, “Macrocyclic urea derivatives as inhibitors of TAFIa, their preparation and their use as pharmaceuticals” (SANOFI, priority 2013, dated 2017).
Like-named read-outs stand apart in the source and are kept apart here.

Tests used:
TAFIa [1] = target: T1, TAFIa (Homo sapiens, UniProt Q96IY4); test: TAFIa inhibition (Actichrome plasma TAFI Activity Kit, 15 minutes pre-incubation); assay type: biochemical; settings: 15 minutes pre-incubation at room temperature
T1 construct: purchased American Diagnostica 874TAFIA
T1 sequence (Q96IY4 115-423): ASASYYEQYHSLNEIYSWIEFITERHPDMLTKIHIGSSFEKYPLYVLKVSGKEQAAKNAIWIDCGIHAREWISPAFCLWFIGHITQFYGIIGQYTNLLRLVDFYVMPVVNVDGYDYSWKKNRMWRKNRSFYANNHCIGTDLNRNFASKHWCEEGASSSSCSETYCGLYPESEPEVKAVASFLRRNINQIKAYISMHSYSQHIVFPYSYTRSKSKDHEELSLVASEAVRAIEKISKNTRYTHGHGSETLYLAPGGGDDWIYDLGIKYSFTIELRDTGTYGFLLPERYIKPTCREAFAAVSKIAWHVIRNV
Description: The prepared substances were tested for TAFIa inhibition using the Actichrome plasma TAFI Activity Kit from American Diagnostica (Pr. No. 874). This entailed adding 28 μl of assay buffer (20 mM Hepes, 150 mM NaCl, pH 7.4) and 10 μl of TAFIa (American Diagnostica Pr. No. 874TAFIA; 2.5 μg/ml) to 2 μl of 2.5 mM DMSO solution of the substance and incubating in a 96 half-well microtiter plate at room temperature for 15 minutes. The enzyme reaction was started by adding 10 μl of TAFIa developer (prediluted 1:2 with assay buffer). The time course of the reaction was followed at 420 nm in a microtiter plate reader (SpectraMax plus 384; Molecular Devices) for 15 minutes.
The IC50 values were calculated from the averaged values (duplicate determination) of serial dilutions of the substance with the aid of the Softmax Pro software (version 4.8; Molecular Devices).

TAFIa [2] = target: T1, TAFIa; test: TAFIa inhibition at variable preincubation times; assay type: biochemical; settings: for behaviour of the coefficient of IC50s with increasing pre-incubation time: increasing pre-incubation time (0 to 30 min)
Description: The prepared substances were tested for TAFIa inhibition using the Actichrome plasma TAFI Activity Kit from American Diagnostica (Pr. No. 874). This entailed adding 28 μl of assay buffer (20 mM Hepes, 150 mM NaCl, pH 7.4) and 10 μl of TAFIa (American Diagnostica Pr. No. 874TAFIA; 2.5 μg/ml) to 2 μl of 2.5 mM DMSO solution of the substance and incubating in a 96 half-well microtiter plate at room temperature for variable pre-incubation times (0, 5, 15 and 30 minutes). The enzyme reaction was started by adding 10 μl of TAFIa developer (prediluted 1:2 with assay buffer). The time course of the reaction was followed at 420 nm in a microtiter plate reader (SpectraMax plus 384; Molecular Devices) for 15 minutes.
The IC50 values were calculated from the averaged values (duplicate determination) of serial dilutions of the substance with the aid of the Softmax Pro software (version 4.8; Molecular Devices). The coefficient of IC50 values was determined by IC50 value at 0 min over IC50 value at x minutes, wherein x can be 0, 5, 15 or 30 minutes of pre-incubation time.

[3] = example compounds, read-out: IC50

| SMILES | IC50 (TAFIa [1]; [3]) | behaviour of the coefficient of IC50s with increasing pre-incubation time (TAFIa [2]) | Coefficient of IC50s (IC50 value at 0 min/IC50 value at x min preincubation time) (TAFIa [2]; pre-incubation time 0 min) | Coefficient of IC50s (IC50 value at 0 min/IC50 value at x min preincubation time) (TAFIa [2]; pre-incubation time 5 min) | Coefficient of IC50s (IC50 value at 0 min/IC50 value at x min preincubation time) (TAFIa [2]; pre-incubation time 15 min) | Coefficient of IC50s (IC50 value at 0 min/IC50 value at x min preincubation time) (TAFIa [2]; pre-incubation time 30 min) | IC50 (TAFIa [1]; comparison examples according to WO2009146802, read-out: IC50 of Comparison examples) |
| --- | --- | --- | --- | --- | --- | --- | --- |
| CC(C)[C@H]1COCCCCOc2ccc(cc2)C[C@@H](NC(=O)N[C@@](C)(C[C@H]2C[C@H](N)C2)C(=O)O)C(=O)N1 [Example 2, (S)-3-trans-(3-Amino-cyclobutyl)-2-[3-((9S,12R)-9-isopropyl-11-oxo-2,7-dioxa-10-aza-bicyclo[12.2.2]octadeca-1(17),14(18),15-trien-12-yl)-ureido]-2-methyl-propionic acid] | 0.3 nM | increases | 1 | 2.9 | 5.8 | 7.7 | – |
| CC(C)[C@H]1COCCCCOc2ccc(cc2)C[C@@H](NC(=O)N[C@@](C)(C[C@@H]2CC[C@@H](N)C2)C(=O)O)C(=O)N1 [Example 3, (S)-3-((1R,3R)-3-Amino-cyclopentyl)-2-[3-((9S,12R)-9-isopropyl-11-oxo-2,7-dioxa-10-aza-bicyclo[12.2.2]octadeca-1(17),14(18),15-trien-12-yl)-ureido]-2-methyl-propionic acid] | 1 nM | – | – | – | – | – | – |

Other lines, results leading:

| IC50 (TAFIa [1]; [3]) | behaviour of the coefficient of IC50s with increasing pre-incubation time (TAFIa [2]) | Coefficient of IC50s (IC50 value at 0 min/IC50 value at x min preincubation time) (TAFIa [2]; pre-incubation time 0 min) | Coefficient of IC50s (IC50 value at 0 min/IC50 value at x min preincubation time) (TAFIa [2]; pre-incubation time 5 min) | Coefficient of IC50s (IC50 value at 0 min/IC50 value at x min preincubation time) (TAFIa [2]; pre-incubation time 15 min) | Coefficient of IC50s (IC50 value at 0 min/IC50 value at x min preincubation time) (TAFIa [2]; pre-incubation time 30 min) | IC50 (TAFIa [1]; comparison examples according to WO2009146802, read-out: IC50 of Comparison examples) | SMILES |
| --- | --- | --- | --- | --- | --- | --- | --- |
| – | stays nearly constant in time | 1 | 0.5 | 1.3 | 1 | 4 nM | CC(C)[C@H]1COCCCCOc2ccc(cc2)C[C@@H](NC(=O)N[C@@H](C[C@H]2C[C@H](N)C2)C(=O)O)C(=O)N1 [reference compound] |
| 0.3 nM | – | – | – | – | – | – | CC(C)[C@H]1COCCCCOc2ccc(cc2)C[C@@H](NC(=O)N[C@@](C)(Cc2ccc(N)nc2)C(=O)O)C(=O)N1 [Example 1, (S)-3-(6-Amino-pyridin-3-yl)-2-[3-((9S,12R)-9-isopropyl-11-oxo-2,7-dioxa-10-aza-bicyclo[12.2.2]octadeca-1(17),14(18),15-trien-12-yl)-ureido]-2-methyl-propionic acid] |
| 1 nM | – | – | – | – | – | – | CC(C)[C@H]1COCCCCOC[C@@H](NC(=O)N[C@@](C)(Cc2ccc(N)nc2)C(=O)O)C(=O)N1 [Example 4, (S)-3-(6-Amino-pyridin-3-yl)-2-[3-((3S,6R)-3-isopropyl-5-oxo-1,8-dioxa-4-aza-cyclododec-6-yl)-ureido]-2-methyl-propionic acid] |
